Measurements as given in patent publication US20230398130A1, “METHODS AND COMPOSITIONS FOR DIFFERENTIATING STEM CELLS” (Massachusetts Institute of Technology, priority 2020, published 2023).

Key:
ISC-enriched organoids [1] = experiment: Primary screen, 384-well 2.5-D organoid differentiation (ENR+CD, 6 days, Target Selective Inhibitor Library, vs whole-plate median): ATP (CellTiter-Glo 3D, CTG); settings: for Dose.FC.CTG: FC vs plate median; for Z.CTG: standard z score of FC; for Dose.FC.CTG (log 2 fold change): vs plate median
ISC-enriched organoids [2] = experiment: Primary screen, 384-well 2.5-D organoid differentiation (ENR+CD, 6 days): basal lysozyme secretion (LYZ.NS); format: cell-based, murine; settings: for Dose.FC.LYZ.NS: FC vs plate median; for Z.LYZ.NS: standard z score of FC; for Dose.FC.LYZ.NS (log 2 fold change): vs plate median
Description: (§1) High-throughput screening.

ISC-enriched organoids [3] = experiment: Primary screen, 384-well 2.5-D organoid differentiation (ENR+CD, 6 days): carbachol-induced lysozyme secretion (LYZ.S); format: cell-based, murine; settings: primary screen; for Dose.FC.LYZ.S: FC vs plate median; for Dose.FC.LYZ.S (log 2 fold change): vs plate median
Description: as §1

[4] = primary screen, dose 0.08 uM, ENR+CD 6 days
[5] = primary screen, dose 0.40 uM, ENR+CD 6 days
[6] = primary screen, dose 2.00 uM, ENR+CD 6 days
[7] = primary screen, dose 10.00 uM, ENR+CD 6 days

Row | Compound | Dose.FC.CTG (ISC-enriched organoids [1]; Dose 0.08 uM, primary screen) | Z.CTG (ISC-enriched organoids [1]; Dose 0.08 uM) | Dose.FC.CTG (ISC-enriched organoids [1]; Dose 0.40 uM, primary screen) | Z.CTG (ISC-enriched organoids [1]; Dose 0.40 uM) | Dose.FC.CTG (ISC-enriched organoids [1]; Dose 2.00 uM, primary screen) | Z.CTG (ISC-enriched organoids [1]; Dose 2.00 uM) | Dose.FC.CTG (ISC-enriched organoids [1]; Dose 10.00 uM, primary screen) | Z.CTG (ISC-enriched organoids [1]; Dose 10.00 uM) | Dose.FC.LYZ.NS (ISC-enriched organoids [2]; Dose 0.08 uM, primary screen) | Z.LYZ.NS (ISC-enriched organoids [2]; Dose 0.08 uM) | Dose.FC.LYZ.NS (ISC-enriched organoids [2]; Dose 0.40 uM, primary screen) | Z.LYZ.NS (ISC-enriched organoids [2]; Dose 0.40 uM) | Dose.FC.LYZ.NS (ISC-enriched organoids [2]; Dose 2.00 uM, primary screen) | Z.LYZ.NS (ISC-enriched organoids [2]; Dose 2.00 uM) | Dose.FC.LYZ.NS (ISC-enriched organoids [2]; Dose 10.00 uM, primary screen) | Z.LYZ.NS (ISC-enriched organoids [2]; Dose 10.00 uM) | Dose.FC.LYZ.S (ISC-enriched organoids [3]; Dose 0.08 uM) | Dose.FC.LYZ.S (ISC-enriched organoids [3]; Dose 0.40 uM) | Dose.FC.LYZ.S (ISC-enriched organoids [3]; Dose 2.00 uM) | Dose.FC.LYZ.S (ISC-enriched organoids [3]; Dose 10.00 uM) | also measured
1 | Nc1ncnc2c1c(-c1cccc(OCc3ccccc3)c1)cn2C1CC(CN2CCCC2)C1 (centres unmarked) [NVP-ADW742] | 0.679 log 2 fold change | 1.622 | 0.663 log 2 fold change | 1.583 | 0.257 log 2 fold change | 0.614 | −0.465 log 2 fold change | −1.112 | 0.142 log 2 fold change | 1.239 | 0.172 log 2 fold change | 1.499 | −0.095 log 2 fold change | −0.823 | −0.135 log 2 fold change | −1.172 | 0.245 log 2 fold change | 0.265 log 2 fold change | −0.166 log 2 fold change | −0.210 log 2 fold change | 
2 | O=C(NOCC1CC1)c1ccc(F)c(F)c1Nc1ccc(I)cc1Cl [PD184352 (CI-1040)] | 0.366 log 2 fold change | 0.874 | 0.261 log 2 fold change | 0.624 | −0.212 log 2 fold change | −0.506 | −0.796 log 2 fold change | −1.901 | −0.019 log 2 fold change | −0.162 | −0.053 log 2 fold change | −0.458 | −0.135 log 2 fold change | −1.176 | −0.116 log 2 fold change | −1.011 | −0.019 log 2 fold change | −0.047 log 2 fold change | −0.178 log 2 fold change | −0.239 log 2 fold change | 
3 | COc1cc(Br)c(Nc2nc(-c3c(C)nc4ncccn34)cs2)c(Br)c1 [PTC-209] |  |  |  |  |  |  |  |  |  |  |  |  |  |  |  |  |  |  |  |  | Z.CTG (standard z score) (ISC-enriched organoids [1]; Dose 0.08 uM, primary screen): −0.259; Dose.FC.CTG (log 2 fold change) (ISC-enriched organoids [1]; Dose 0.08 uM, primary screen): −0.108; Z.CTG (standard z score) (ISC-enriched organoids [1]; Dose 0.40 uM, primary screen): −0.495; Dose.FC.CTG (log 2 fold change) (ISC-enriched organoids [1]; Dose 0.40 uM, primary screen): −0.207; Z.CTG (standard z score) (ISC-enriched organoids [1]; Dose 2.00 uM, primary screen): −3.397; Dose.FC.CTG (log 2 fold change) (ISC-enriched organoids [1]; Dose 2.00 uM, primary screen): −1.422; Z.CTG (standard z score) (ISC-enriched organoids [1]; Dose 10.00 uM, primary screen): −3.708; Dose.FC.CTG (log 2 fold change) (ISC-enriched organoids [1]; Dose 10.00 uM, primary screen): −1.553; Z.LYZ.NS (standard z score) (ISC-enriched organoids [2]; Dose 0.08 uM, primary screen): 0.294; Dose.FC.LYZ.NS (log 2 fold change) (ISC-enriched organoids [2]; Dose 0.08 uM, primary screen): 0.034; Z.LYZ.NS (standard z score) (ISC-enriched organoids [2]; Dose 0.40 uM, primary screen): −0.509; Dose.FC.LYZ.NS (log 2 fold change) (ISC-enriched organoids [2]; Dose 0.40 uM, primary screen): −0.058; Z.LYZ.NS (standard z score) (ISC-enriched organoids [2]; Dose 2.00 uM, primary screen): −1.753; Dose.FC.LYZ.NS (log 2 fold change) (ISC-enriched organoids [2]; Dose 2.00 uM, primary screen): −0.201; Z.LYZ.NS (standard z score) (ISC-enriched organoids [2]; Dose 10.00 uM, primary screen): −1.975; Dose.FC.LYZ.NS (log 2 fold change) (ISC-enriched organoids [2]; Dose 10.00 uM, primary screen): −0.227; Dose.FC.LYZ.S (log 2 fold change) (ISC-enriched organoids [3]; Dose 0.08 uM): 0.007; Dose.FC.LYZ.S (log 2 fold change) (ISC-enriched organoids [3]; Dose 0.40 uM): 0.045; Dose.FC.LYZ.S (log 2 fold change) (ISC-enriched organoids [3]; Dose 2.00 uM): −0.289; Dose.FC.LYZ.S (log 2 fold change) (ISC-enriched organoids [3]; Dose 10.00 uM): −0.300
4 | COc1cc(N2CCN(C)CC2)ccc1Nc1nccc(-c2cn(C)c3cnccc23)n1 [AZ191] |  |  |  |  |  |  |  |  |  |  |  |  |  |  |  |  |  |  |  |  | Dose.FC.CTG (ISC-enriched organoids [1]; [4]): 0.292 log 2 fold change; Z.CTG (ISC-enriched organoids [1]; primary screen, dose 0.08 uM): 0.697; Dose.FC.CTG (ISC-enriched organoids [1]; [5]): 0.337 log 2 fold change; Z.CTG (ISC-enriched organoids [1]; primary screen, dose 0.40 uM): 0.804; Dose.FC.CTG (ISC-enriched organoids [1]; [6]): 0.150 log 2 fold change; Z.CTG (ISC-enriched organoids [1]; primary screen, dose 2.00 uM): 0.358; Dose.FC.CTG (ISC-enriched organoids [1]; [7]): −0.533 log 2 fold change; Z.CTG (ISC-enriched organoids [1]; primary screen, dose 10.00 uM): −1.272; Dose.FC.LYZ.NS (ISC-enriched organoids [2]; [4]): 0.128 log 2 fold change; Z.LYZ.NS (ISC-enriched organoids [2]; primary screen, dose 0.08 uM): 1.111; Dose.FC.LYZ.NS (ISC-enriched organoids [2]; [5]): 0.082 log 2 fold change; Z.LYZ.NS (ISC-enriched organoids [2]; primary screen, dose 0.40 uM): 0.717; Dose.FC.LYZ.NS (ISC-enriched organoids [2]; [6]): 0.058 log 2 fold change; Z.LYZ.NS (ISC-enriched organoids [2]; primary screen, dose 2.00 uM): 0.507; Dose.FC.LYZ.NS (ISC-enriched organoids [2]; [7]): −0.148 log 2 fold change; Z.LYZ.NS (ISC-enriched organoids [2]; primary screen, dose 10.00 uM): −1.289; Dose.FC.LYZ.S (ISC-enriched organoids [3]; dose 0.08 uM, ENR+CD 6 days): 0.143 log 2 fold change; Dose.FC.LYZ.S (ISC-enriched organoids [3]; dose 0.40 uM, ENR+CD 6 days): 0.199 log 2 fold change; Dose.FC.LYZ.S (ISC-enriched organoids [3]; dose 2.00 uM, ENR+CD 6 days): 0.097 log 2 fold change; Dose.FC.LYZ.S (ISC-enriched organoids [3]; dose 10.00 uM, ENR+CD 6 days): −0.200 log 2 fold change
